The test system of one assay is H4IIEC3 cell. Nature of the assay: Ethanol induced lipid accumulation in H4IIEC3 (Nile red staining). Format: cell-based, rodent. Particulars: H4IIEC3 cells, ethanol plus L-serine (0.1, 1, 10 mM tested; concentration of this value not stated), 48 hrs; ethanol control 63.4 unit; P<0.05. As for the experimental part: In order to investigate the inhibitory effect of the test sample on ethanol induced lipid accumulation in H4IIEc3, following experiment was performed according to the modified procedure disclosed in literature (Yin et al., Honokiol reverses alcoholic fatty liver by inhibiting the maturation of sterol regulatory element binding protein-1c and expression of its downstream lipogenesis genes: Toxicol. Appl. Pharmacol. 236:124-130, 2009). H4IIEC 3 cell, a rodent liver cancer cell line, was procured from ATCC (American Type Culture Collection) and used in the experiment. The cell was cultured in RPMI1640 medium supplemented with 10% FBS, 100 U/ml of penicillin, […] of streptomycin at 37° C. in 5% CO2 incubator and 1 ml of the cell was distributed to 96-well (1×10^4/ml) to be stabilized until the cell had grown completely for 12-16 hours in 5% CO2 incubator. The cell was treated with ethanol or combination with ethanol with various concentration of L-serine (0.1 mM, 1 mM, and 10 mM) to incubate for 48 hrs. […] The inhibition of lipid accumulation was determined by determining the fluorescence intensity of the Nil red changed by accumulated lipid induced by alcohol 5 mins after Nile red treatment through the observation with microscopy or microplate reader at 480 nm/580 nm.

Assay [1] relates to acute fatty liver induced mouse model fed by alcohol. Nature of the assay: Fatty liver formation in acute fatty liver induced mouse model fed by alcohol (triglyceride level). It is filed as in vivo. Particulars: high dose group, 200 mg/kg L-serine orally twice plus ethanol. As for the experimental part: In order to investigate the inhibitory effect on the formation of fatty liver in acute fatty liver induced mouse model fed with alcohol, following experiment was performed according to the modified procedure disclosed in literature (Song et al., S-Adenosylmethione protects against acute alcohol induced hepatotoxicity in mice, J. Nutr. Biochem. 14:591-597, 2003). Male C57/BL mouse (19-21 g) procured from Central Lab. Animal Inc. (www.labanimal.co.kr) was bred according to GLP (Good Laboratory Practice) guideline in animal breeding room providing freely accessible water and solid feed, and acclimated with environment for 7 days before use. The breeding room was controlled by automatic light system from 8:00 A.M. to 8:00 P.M, for 12 hours with adjusting the temperature to 24° C. and the mouse was freely let to access to water and feed. […] The ALT (s-GPT) enzyme activity was determined by analysis kit (YD diagnostics Inc, www.yd-diagnostics.com) according to the Reitman-Frankel method disclosed in preceding literature. The level of triglyceride in […] was determined by analysis kit analysis kit (Cat. No. TR0100, Sigma Aldrich Corp.) and the result was shown in FIG. 2.

In a further assay the test system is SREBP1. Kind of assay: SREBP1 expression by Western blot in acute fatty liver induced mouse model fed by alcohol. Format: in vivo. The settings on record: FIG. 3. As for the experimental part:
(§1) In order to confirm whether the anti-steatotic effects of L-serine on alcoholic fatty liver is caused by the inhibition of SREBP1 activity or not, following experiment was performed according to the modified procedure disclosed in literature (Yin et al., Magnolia officinalis reverses alcoholic fatty liver by inhibiting the maturation of sterol regulatory element binding protein-1c, J. Pharmacol. Sci. 109:486-495, 2009). The expression of SREBP1 and its target gene product FAS were determined by the standard Western blot analysis using specific antibodies.
Background: In western blotting, separated proteins are transferred to a membrane and probed.

The next assay concerns FAS. Nature of the assay: FAS expression by Western blot in acute fatty liver induced mouse model fed by alcohol. Format: in vivo. The settings on record: FIG. 3. As for the experimental part: as §1
In another assay the test system is chronic ethanol fed rats. Nature of the assay: Hepatotoxicity and fatty liver in chronic ethanol fed rats (serum ALT, liver triglyceride). It is filed as in vivo. The settings on record: wistar rat, ethanol diet with L-serine for 4 weeks (dose group not stated). As for the experimental part: In order to investigate the effects of L-serine on the hepatotoxicity and fatty liver in chronic ethanol fed rats, ALT (s-GPT) enzyme activity in the serum and triglyceride level in the liver was determined according to the modified procedure disclosed in literature (Lee et al., Effect of Chlorella vulgaris on lipid metabolism in wistar rats fed high fat diet, Nut. […]. 2:204-210, 2008). Male wistar rat (170-190 g) procured from Central Lab. Animal Inc. (www.labanimal.co.kr) was bred according to GLP (Good Laboratory Practice) guideline in animal breeding room providing freely accessible water and solid feed, and acclimated with environment for 7 days before use. The breeding room was controlled by automatic light system from 8:00 A.M. to 8:00 P.M, for 12 hours with adjusting the temperature to 24° C. During the experiment, the rat was fed with liquid diet (Standard […].com) for providing appropriate calorie. […] The ALT (s-GPT) enzyme activity was determined by analysis kit (YD diagnostics Inc, www.yd-diagnostics.com) according to the Reitman-Frankel method disclosed in preceding literature. The level of triglyceride in the rat liver was determined by analysis kit analysis kit (Cat. No. TR0100, Sigma Aldrich Corp.) and the result was shown in FIG. 4.

Turning to `N[C@@H](CO)C(=O)O` [L-serine], the “fluorescence intensity of Nile red (lipid accumulation)” value in the assay on H4IIEC3 cell stood at 29 unit. The “triglyceride level reduced by” value in assay [1] (C57/BL mouse) is listed as 58.5%. For the same compound, in assay [1] (ethanol treatment group 99.7 mg/g), the triglyceride level is given as 52.4 mg/g. In the assay on SREBP1, the SREBP1 activation entry is “inhibited”. The FAS activation entry with FAS was “inhibited”. The compound also displayed a hepatic triglyceride level in the assay on chronic ethanol fed rats (liver, ethanol group 91.69 mg/g liver) of 53.4 mg/g liver. In the assay with chronic ethanol fed rats (serum, ethanol group 42.5 U/L), this compound returned an ALT enzyme activity of 24.67 U/L.

Source of the values: US9539226B2, “Composition containing serine as an active ingredient for the prevention and treatment of fatty liver diseases, and the use thereof” (SNU R&DB FOUNDATION, priority 2010, dated 2017).
